Measurements from patent EP1007066B1, “SCREENING METHODS FOR GLUCOCORTICOID RECEPTOR BINDING SUBSTANCES USING TRYPTERYGIUM WILFORDII PREPARATIONS” (priority 1996, dated 1998).
In brackets after ≈: the same amount, converted by molar mass.

Assays:
[1] = test system: IDH4 cells; test: Dexamethasone dependent growth of IDH4 cells (3H-thymidine); format: cell-based, human; settings: for [3H]-thymidine incorporation of IDH4 cells: without stimulation 16,391; for dexamethasone dependent growth of IDH4 cells: 72 hours
Procedure: IDH4 cells, that express endogenous glucocorticoid receptors, were produced by transfecting human fibroblasts with a plasmid containing the MMTV-long terminal repeat driving the SV40 large T antigen. Since extended growth of these cells is dependent on expression of the large T antigen, these cells require exogenous glucocorticoid to maintain proliferation.
[^3H]-Thymidine was present for the last 16 h. Data represent the mean % inhibition of [^3H]-thymidine incorporation of three replicate determinations of three separate experiments.

[2] = test system: cyclooxygenase 2 (COX-2); test: LPS (endotoxin) induced PGE2 production by monocytes; format: cell-based, human; settings: LPS 10 µg/ml, 18 hours
Procedure: After 18 hours of incubation, cell-free supernatants were collected and assayed for PGE2 content with a radioimmunoassay kit (Amersham), as described by the manufacturer. […] Human monocytes produce prostaglandinE2 (PGE2) when stimulated with bacterial endotoxin.

[3] = molecular target: T1, human GR (Homo sapiens, UniProt P04150); test: GR mediated gene activation, MMTV-luciferase in COS-7 cells, with dexamethasone; format: cell-based; settings: for GR-mediated activation of target gene (MMTV-luciferase): dexamethasone-induced
T1 construct: host or cells: COS-7
T1 sequence (P04150 1-777): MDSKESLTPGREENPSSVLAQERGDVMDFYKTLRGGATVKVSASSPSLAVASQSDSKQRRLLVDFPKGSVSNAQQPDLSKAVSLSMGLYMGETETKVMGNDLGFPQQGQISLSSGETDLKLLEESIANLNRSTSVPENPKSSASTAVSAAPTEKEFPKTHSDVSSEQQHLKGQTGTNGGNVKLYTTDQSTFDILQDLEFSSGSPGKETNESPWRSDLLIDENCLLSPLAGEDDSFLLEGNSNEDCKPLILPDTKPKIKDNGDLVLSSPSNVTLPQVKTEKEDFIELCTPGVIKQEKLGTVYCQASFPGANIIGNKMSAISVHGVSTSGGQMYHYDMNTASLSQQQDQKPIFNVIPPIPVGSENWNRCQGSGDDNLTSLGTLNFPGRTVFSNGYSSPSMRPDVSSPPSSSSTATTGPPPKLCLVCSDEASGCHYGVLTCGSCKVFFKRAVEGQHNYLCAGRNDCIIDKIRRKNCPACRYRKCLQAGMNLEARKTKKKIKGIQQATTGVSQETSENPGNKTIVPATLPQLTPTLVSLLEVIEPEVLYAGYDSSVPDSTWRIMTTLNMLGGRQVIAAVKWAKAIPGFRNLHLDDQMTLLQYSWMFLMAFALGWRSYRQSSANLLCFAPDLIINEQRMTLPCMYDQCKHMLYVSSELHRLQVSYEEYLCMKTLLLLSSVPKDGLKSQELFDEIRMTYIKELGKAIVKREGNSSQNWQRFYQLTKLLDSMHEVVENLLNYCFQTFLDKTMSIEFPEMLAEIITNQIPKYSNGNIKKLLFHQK
Procedure: Cell transfections and assays of GR mediated gene activation. COS-7 cells were maintained in culture in DMEM-10% bovine calf serum. […] Cells were plated at 10^6 cells per 10 cm plate. Twenty-four hours later, the cells were transfected with 500 ng pRShGrα, a GR expression vector (obtained from the Salk Institute, La Jolla, CA) and 10 µg of pMMTV-luciferase, a synthetic reporter gene. However, other expression vectors and synthetic reporter genes available to those of skill in the art may be used for transfection. The vector pMMTV-luciferase contains the luciferase gene under regulatory control of glucocorticoid-inducible elements in the MMTV-long terminal repeat. Cells were transfected using the calcium-phosphate precipitation technique (mammalian transfection kit, Stratagene, La Jolla, CA). […] Twenty-four hours later, the cells were washed, harvested, and lysates prepared by three cycles of freeze/thawing. The lysates were cleared by centrifugation at 12,000 x g for 5 minutes; aliquots were assayed for protein content and equal amounts of proteins were used for luciferase assays.
COS-7 cells were transfected with a human GR expression vector and the MMTV-luciferase reporter gene construct. A parallel set of plates was transfected with the constitutively active RSV-luciferase construct. […] Cells were lysed after 24 hours and assayed for luciferase activity.

[4] = test system: U937 cells; test: PGE2 production by LPS-activated U937 cells; format: cell-based, human
Description: This reflected marked suppression of the induction ofmRNA for cycloxygenase -2 (COX-2). […] This may contribute to its capacity to suppress autoimmune and inflammatory diseases.

[5] = in vitro; format: cell-based
Procedure: The cells were assayed for cell viability by using a cytoflowmeter (FACSCAN) after the cells were stained with propidium iodine. […]

[6] = test system: T cells; test: Antigen (SK)-induced T cell proliferation (wilforonide); format: cell-based
Procedure: T cells were cultured with or without SK (1 ng/ml) or SK + IL-2 (50 u/ml) or SK + PMA (0.2 ng/ml) in the presence or absence of the following concentrations of wilforonide: 10 ng/ml, 50 ng/ml, 100 ng/ml, 500 ng/ml or 1,000 ng/ml. The cells were allowed to culture for five days. The cultures were pulsed with [^3H]-thymidine for the last 24 hours of culture. […] ID50 were calculated based on the regression formula by using the fx-3600 calculator. T cells cultured with SK or SK + IL-2 or SK + PMA gave cpm of 1.87 x 10^3, 4.99 x 10^3 and 6.67 x 10^3, respectively.

[7] = test system: PHA-stimulated T cells; test: PHA-induced T cell proliferation (924 / wilforonide); format: cell-based; settings: PHA 0.5 µg/ml, 3 days
Description: The molecular groups responsible for the immune suppressive function of these compounds are unknown, however, the core structure of diterpenoids which may be related to their activity consists of an α-β-unsaturated 5 element lactone which can be identified by Kedde reagents. HPLC was used to fractionate the ethyl acetate extract of TwHF and the Kedde reagents were employed to trace the fractions. Then, the effect of selected fractions on the in vitro IL-2 production and [^3H]-thymidine incorporation by PHA-activated T cells was determined. Fractions that inhibit these T cell functions were selected and the chromatographic pattern was identified with HPLC. One fraction was further purified with HPLC and crystallized repeatedly; a pure, crystallized compound was obtained and designated "924".
[^3H]-thymidine was added for the last 14 hours of culture. Each concentration was run in quadruplicate (4 times) and the results for each concentration averaged to provide a mean. The mean cpm x 10^3 values were combined and expressed as a percent of T cell inhibition.

[8] = Solubility of 924; format: physicochemical; settings: ethanol and chloroform
Procedure: The dried woody skinned part of the root of TwHF was extracted with ethanol. The solution was concentrated at reduced pressure, and the residue was dissolved in ethyl acetate. This solution was passed through Al2O3 with ethanol as an eluent. The eluate was evaporated and the residue chromatographed on silica gel with chloroform, chloroform-ether and ethyl acetate as successive eluent. The fractions eluted with chloroform-ether were purified on a preparative HPLC column packed with Nova-Pak C18 and equipped with a 214 detector. Methanol-water was the mobile phase. A fraction having positive reaction to Kedde reagent was collected and extracted with chloroform. The chloroform solution was evaporated to dryness and the residue crystallized in dichloromethane-hexane to yield 924.

[9] = test system: PHA-stimulated T cells; test: Viability of PHA-stimulated T cells (924); format: cell-based
Procedure: A 924 fraction concentration of 1,000 ng/ml was only slightly more toxic to cell viability as compared to the 0 ng/ml dose (see FIG. 20D, 0 ng/ml = 22% of control; 1,000 ng/ml fraction 924 = […] of control cell viability).

[10] = test system: IL-2; test: PHA-induced IL-2 production (wilforonide, CTLL-2 readout); format: cell-based; settings: PHA 1 µg/ml, overnight
Procedure: The effects of wilforonide on IL-2 production was also examined. T cells were cultured with or without PHA(1 microgram/ml) in the presence or absence of 0 (control), 10 ng/ml, 50 ng/ml, 100 ng/ml or 200 ng/ml wilforonide overnight. Cell-free supernatants were diluted 1 to 80 and the IL-2 content assayed with CTLL-2 cells.

[11] = test system: IL-2R; test: IL-2R expression by PHA-activated T cells (924); format: cell-based; settings: 500 ng/ml
Description: There was no effect of "924" on IL-2R expression by PHA-activated T cells.

With `C[C@@H]1C[C@H]2[C@@H]3CCC4=CC(=O)C=C[C@]4(C)[C@@]3(F)[C@@H](O)C[C@]2(C)[C@@]1(O)C(=O)CO` [dexamethasone] the “[3H]-thymidine incorporation of IDH4 cells” value (from here on “[3H]-thymidine incorporation”) ([1]; dexamethasone 1 nM) was 35,554 cpm, the “[3H]-thymidine incorporation” value ([1]; dexamethasone 10 nM) was 52,937 cpm and the “[3H]-thymidine incorporation” value ([1]; dexamethasone 100 nM) was 105,357 cpm. The “[3H]-thymidine incorporation” value ([1]; dexamethasone 1,000 nM) was 96,677 cpm.

In the case of `CC(C)[C@]12O[C@H]1[C@@H]1O[C@]13[C@]1(O[C@H]1C[C@H]1C4=C(C(=O)OC4)[C@@H](O)C[C@@]13C)[C@@H]2O` [tripdiolide], the “LPS / endotoxin induced PGE2 production by monocytes” value [2] is reported as “inhibited”, the “GR-mediated activation of target gene (MMTV-luciferase)” value (from here on “GR-mediated activation of target gene”) [3] is reported as “inhibited” and the “PGE2 production by LPS-activated U937 cells that do not express COX-2” value [4] is reported as “had effect”. For the same molecule, the “dexamethasone dependent growth of IDH4 cells” value [1] was “inhibited”.

For `CC(C)[C@]12O[C@H]1[C@@H]1O[C@]13[C@]1(O[C@H]1C[C@H]1C4=C(CC[C@@]13C)C(=O)OC4)[C@@H]2O` [triptolide], the “more potent at inhibition of MMTV-luciferase induction than at binding inhibition” value ([3]; compared with GR ligand binding inhibition) was “more than an order of magnitude”, the “GR-mediated activation of target gene” value [3] was “inhibited” and the viability at 72 hr, 0.1 ng/ml [5] was 91.7%. The viability at 72 hr, 10 ng/ml [5] was 35.8%.

For `C[C@]12CCC3=C(COC3=O)[C@@H]1CCC(=O)C2` (relative stereo) [wilforonide, naphtho-[1,2-c] furan-3,7(1H,5H)-dione, 4,5a,6,8,9,9a-hexahydro-5a-methyl-(5aR-trans)-], the “ID50, antigen-induced T cell proliferation” value ([6]; SK) was 0.12712 µg/mL (≈ 0.577 µM), the “ID50, antigen-induced T cell proliferation” value ([6]; SK+IL-2) was 0.476 µg/mL (≈ 2.16 µM) and the “ID50, antigen-induced T cell proliferation” value ([6]; SK+PMA) was 0.613 µg/mL (≈ 2.78 µM). The “ID50, PHA-induced T cell proliferation” value [7] was 0.3913 µg/mL (≈ 1.78 µM), the “cpm x 10^3 (experiments 1.-4.)” value ([7]; Wilforonide 50 ng/ml) was 57.0 cpm x 10^3 and the solubility [8] was “soluble”. For the same molecule, the “viability of PHA-stimulated T cells” value ([9]; 1 ng/ml up to 1000 ng/ml) was “did not affect”, the cell viability ([9]; 1,000 ng/ml) was 35 % of control and the “ID50, PHA-induced IL-2 production” value [10] was 0.04211 µg/mL (≈ 0.191 µM). For the same molecule, the “IL-2R expression by PHA-activated T cells” value [11] was “did not affect”.

With `CC(C)c1ccc2c(c1O)CC[C@H]1C3=C(CC[C@]21C)C(=O)OC3` [triptophenolide] the “GR-mediated activation of target gene” value [3] was “far less potent” and the “dexamethasone dependent growth of IDH4 cells” value [1] was “less active”.
